Experimental data as given in US20250213593A1, “Use of Derivatives based on Sarsasapogenin Structure and Pharmaceutical Compositions thereof” (BEIJING PHYTOVENT PHARMACEUTICAL TECHNOLOGY CO., LTD., priority 2022, published 2025).
“Also recorded” adds a separate entry of the source. Read-outs that look alike come from different tables or passages of the source.

Columns and labels:
[1] = system: ICR mice; test: Sleep of mice at subthreshold hypnotic dosage of sodium pentobarbital; assay type: in vivo, mouse; settings: Diazepam 1 mg/kg; vs blank control
Protocol: After adaptive feeding of mice, 50 qualified animals were selected according to their body weights and divided into 5 groups by Excel complete randomization: a blank control group, a positive control group (Diazepam), and high-, medium- and low-dosage groups of test product, with 10 animals in each group. Animals in each group should be administrated with drug solutions and vehicles. After 1 h of administration, the animals in each group were intraperitoneally injected with a maximum subthreshold dosage of sodium pentobarbital (firstly, a pre-experiment was conducted to determine a maximum subthreshold hypnotic dosage of sodium pentobarbital).

[2] = system: human SHSY5Y neural tumor cells; test: H2O2-induced oxidative damage of SHSY5Y cells (MTT); assay type: cell-based; settings: 1 μM, pre-protected 24 h, 250 μM H2O2 24 h
[3] = system: hippocampal neurons; test: L-cysteine-induced neuronal excitotoxicity; assay type: cell-based, SD rats; settings: compound 1 μM, 24 h before inducer
Protocol: Experimental and analytical method: before the experiment, a 24-well cell culture plate was pretreated with Poly-D-lysine and placed in a cell incubator at 37° C. and 5% CO2 overnight. SD rats, 18 days pregnant, were ordered, brains of fetal rats (E18-19) were dissected, and hippocampal neurons in the brains were subjected to primary culture in a neuronal medium using a 24-well plate, and then cultured by a serum-free medium. The hippocampal neurons were cultured in a cell incubator at 37° C., 5% CO2 for 19 days (DIV19), then added with a compound to be tested (a final concentration of 1 μM) and a positive control AP5 [(2R)-amino-5-phosphonopentanoic acid(phosphonatopentanoate)] (a final concentration of 100 μM), cultured for 24 h, and then added with L-Cystine (400 μM) and NaHCO3 (10 mM). After 18 h, Hoechst3342 (2.5 μg/ml) was added for cell staining. The cells were placed in the incubator and cultured for 15 min, and photographed using the high-content fluorescence microscope, wherein 6 random non-overlapping fields were photographed for each duplicate well, and the total number of neurons and the number of dead neurons were counted with software Image J. The obtained data was used to determine whether there was a difference between a drug treatment group and a control group.
Compound treatment: 32 small molecule compounds in Embodiment 1 to Embodiment 19A were diluted with DMSO to a 1 mM mother solution; and 1 μL of mother solution was added to 1 ml of culture solution per well in a 24-well plate to a final concentration of 1 μM, wherein a positive control compound was […] of AP5 (100 mM mother solution), and a negative control was 1 μl of DMSO.

[4] = system: U937 (histiocytic lymphoma cells); test: Cell proliferation assay, U937; assay type: cell-based; settings: Homo sapiens, U-937, 72 h
Protocol: (§1) • Experimental and analytical method: cells were inoculated into a 96-well cell culture plate with a lid at a maximum concentration of 10 μM for a test compound, and diluted in three folds to a series of test concentrations, and cells were incubated at 37° C., 5% CO2 for 72 h. The concentration of DMSO was 0.5%, 100 μl of medium was taken from each well. 100 μl of reagent (Celltitute Glo Assay Kit) was added to each well, and a flat plate was shaken on a plate shaker (protected from light) for 2 min. A culture plate was incubated (protected from light) at room temperature for 30 min. Chemiluminescence values were recorded by a multi-plate plate reader, and the experimental results were as follows:
(§2) U937 (histiocytic lymphoma cells), OCI-LY3 (human diffuse large B-cell lymphoma cells), U2932 (human diffuse large B-cell lymphoma cells), and HT cells (human mixed lymphoma cells) were analyzed in the table for experimental analysis of cell proliferation.

[5] = system: OCI-LY3 (human diffuse large B-cell lymphoma cells); test: Cell proliferation assay, OCI-LY3; assay type: cell-based; settings: Homo sapiens, OCI-Ly3, 72 h
Protocol: as §1, §2

[6] = system: U2932 (human diffuse large B-cell lymphoma cells); test: Cell proliferation assay, U2932; assay type: cell-based; settings: U2932, 72 h
Protocol: as §1, §2

[7] = system: C57BL/6J mice, LPS-induced peripheral and central inflammation; test: LPS-induced peripheral and central inflammation mouse model; assay type: in vivo; settings: 30 mg/kg p.o. QD*3
Protocol: Modeling method: LPS (2 mg/kg, i.p., QD) was injected on Day 1, Day 2 and Day 3 to induce peripheral and central inflammations of mice. An ND drug test group was subjected to administration pre-protection (ND 30 mg/kg, p.o., QD) 2 h before LPS injection. After the experiment, plasma and brain tissues of the mice were collected for inflammatory factors, peroxidation factors and other indicators.
• Serum: after the mice were anesthetized with 1% sodium pentobarbital, the eyeballs were harvested, the blood was taken and placed in an EP tube, and then centrifuged at low temperature after standing at 4° C. for 1 h, and a supernatant was taken, and frozen quickly in liquid nitrogen. • Hippocampal tissues: the mice were anesthetized with 1% sodium pentobarbital and then subjected to cardiac perfusion with cold PBS, brains were harvested, and tissues were taken on ice and frozen quickly in an EP tube with liquid nitrogen.
Cryopreserved plasma was taken, and an reactive oxygen detection kit, a hydrogen peroxide detection kit and a nitric oxide detection kit were used to detect various indicators. The specific operation processes were the same as the instruction of each kit.
The cryopreserved hippocampal tissues were taken, added with a RIPA tissue lysate containing a protease inhibitor, fully homogenized and cleaved. A supernatant was taken after low-temperature centrifugation. The protein quantification was performed by a BCA protein quantification kit. Tissue samples were adjusted to a unified protein concentration. An reactive oxygen detection kit, a hydrogen peroxide detection kit and a nitric oxide detection kit were used to detect various indicators.
Cryopreserved plasma was taken, and IL-1β, IL-6 and IL-10 kits were used to detect various indicators. The specific operation processes were the same as the instruction of each kit.
A hippocampal tissue supernatant was taken, and IL-1β, IL-6 and IL-10 kits were used to detect various indicators. The specific operation processes were the same as the instruction of each kit.
Experimental results were expressed as “mean±standard deviation”. One-way ANOVA was used to compare the data of each group to determine whether there was a statistical difference between the groups.

[8] = system: male SD rats, TBI model; test: Acute traumatic brain injury (TBI) rat model; assay type: in vivo; settings: 80 mpk once a day, 7 days; vs solvent control (P<0.05)
Protocol: • Experimental and analytical method: male SD rats were used in this experiment to establish a TBI rat model, which was randomly divided into: a solvent control group (8 rats), a test product Embodiment 13B (80 mpk, 10 rats), and a test product Embodiment 26 (80 mpk, 9 rats). After TBI surgery, drugs were administered by gavage once a day for 7 consecutive days.

[9] = system: Lepr gene mutant (DB) mice; test: Blood glucose of DB mice; assay type: in vivo, mouse; settings: 80 mpk by gavage once a day, from 8 to 20 weeks of age
Source text: • Experimental and analytical method: leptin receptor gene (OB-R) was also known as diabetes gene (db), leptin receptor (Lepr) is closely related to obesity, hypertension, diabetes, lipid metabolism disorders, etc. The courses of these diseases are greatly influenced by the genetic background. Topical insulin can not control the increase in blood glucose and gluconeogenesis levels in the liver. Gene editing technologies and embryo injection technologies were used to construct Lepr gene mutant mice. […] The blood glucose in each mouse of this strain began to rise sharply at 8 weeks of age, reaching 30 mmol/L, while the blood glucose of the normal background was only about 6 mmol/L. We started drug delivery from 8 weeks of age. Test small molecules were Embodiment 28, Embodiment 29 and Embodiment 30, all of which were at a dosage of 80 mpk, and delivered by gavage once a day.

[10] = system: rats with ulcerative colitis induced by TNBS; test: TNBS rats enteritis model; assay type: in vivo, rat; settings: 80 mpk oral gavage once a day, 7 days
Protocol: All rats except the normal control group were fasted for solids (not liquids) for 24 h. After being anesthetized with isoflurane, the rats were transrectally infused with a TNBS ethanol solution (18 mg TNBS/mouse) at 0.5 mL/mouse through a latex hose, the length of the hose into the rectum was about 8 cm, an anesthesia state was continued after the hose was withdrawn, and the rats were kept in an inclined state for 15 min. The rats in the normal control group were not stimulated with rectal cannula. After the animals were awake, they were randomly divided into groups, which then began to be administrated with drugs (marked as D1). The blank group and the model group were administrated with the same amount of vehicle by oral gavage once a day for 7 consecutive days (D1-D7). The animal's status and feces (loose stools or bloody stools) were observed every day. The body weights were monitored. On the next day after the last administration (D8), the animals were deeply anesthetized with CO2, sacrificed and dissected. The entire colon tissues were harvested. The colon content was washed with normal saline after dissection along the mesenteric side. The body weights were measured and the colon lengths were measured. A ulcer surface was measured by Image J software. The general conditions of the colons were observed and photographed. Some of diseased tissues were fixed with formalin, and subjected to histopathological observation by HE staining. • Results: (1) the effects on general conditions of TNBS colitis mice were shown in FIG. 46a: the rats had loose stool on the next day of TNBS modeling; and the modeled mice had symptoms of reduced diet, tiredness, emaciation, erect hair, and dull hair. The feces of some rats were improved in the later stage of administration, but some rats still maintained loose stool until the end of the experiment, and some rats had obvious abdominal distension in the later stage of the experiment.

CN1C(=O)CN=C(c2ccccc2)c2cc(Cl)ccc21 [Diazepam, reference compound]
sleep latency [1]: significantly shortened | sleep time [1]: significantly prolonged

C[C@H]1CC[C@@]2(OC1)O[C@H]1C[C@H]3[C@@H]4CC[C@@H]5CC(NC(=O)C6CCN(C)CC6)CC[C@]5(C)[C@H]4CC[C@]3(C)[C@H]1[C@@H]2C (stereo partly shown) [Embodiment 2]
protection of H2O2-induced neural tumor cell damages [2]: significantly protected | protective effects on L-Cystine (400 μM)-induced neuronal excitotoxicity [3]: protective effects

C[C@H]1CC[C@@]2(OC1)O[C@H]1C[C@@H]3[C@H](CC[C@H]4[C@H]3CC[C@@H]3CC(NC(=O)CC(=O)NCC5CCN(C)CC5)CC[C@@]34C)[C@H]1[C@@H]2C (stereo partly shown) [Embodiment 7]
protection of H2O2-induced neural tumor cell damages [2]: significantly protected

C[C@H]1CC[C@@]2(OC1)O[C@H]1C[C@H]3[C@@H]4CC[C@@H]5CC(NC(=O)CCN6CCN(CCN(C)C)CC6)CC[C@]5(C)[C@H]4CC[C@]3(C)[C@H]1[C@@H]2C (stereo partly shown) [Embodiment 13]
protection of H2O2-induced neural tumor cell damages [2]: significantly protected | protective effects on L-Cystine (400 μM)-induced neuronal excitotoxicity [3]: protective effects | IC50 ([4]; low sugar, read-out: U937 (IC50, uM) Low sugar): 2.28 µM | IC50 ([4]; normal sugar, read-out: U937 (IC50, uM) Normal sugar): 4.04 µM | IC50 [5]: 4.4 µM | IC50 [6]: 1.19 µM

C[C@H]1CC[C@@]2(OC1)OC1CC3C4CC[C@@H]5C[C@@H](NC(=O)CC(=O)NCCO)CC[C@]5(C)C4CC[C@]3(C)C1[C@@H]2C (stereo partly shown) [Embodiment 14A]
protection of H2O2-induced neural tumor cell damages [2]: significantly protected

C[C@@H]1CC[C@@]2(OC1)OC1CC3C4CC[C@H]5C[C@@H](NC(=O)CCN(C)C)CC[C@]5(C)C4CC(=O)[C@]3(C)C1[C@@H]2C (stereo partly shown) [Embodiment 20A]
IL-10 in hippocampus [7]: only affected | IL-10 in serum [7]: only affected | anti-inflammatory effect (in words) [7]: obvious anti-inflammatory effect; also recorded: good anti-inflammatory effect | antioxidant effect (in words) [7]: good antioxidant effect | H2O2 concentration in serum ([7]; vs LPS group): significantly improved | NO concentration in serum ([7]; vs LPS group): significantly improved | ROS level in serum ([7]; vs LPS group): significantly improved

C[C@H]1CC[C@@]2(OC1)O[C@H]1C[C@H]3[C@@H]4CC[C@@H]5CC(NC(=O)CC(=O)N6CCN(C7CCN(C)CC7)CC6)CC[C@]5(C)C4CC[C@]3(C)[C@H]1[C@@H]2C (stereo partly shown) [Embodiment 26]
early brain apoptosis rates [8]: significantly lower | total apoptosis rates [8]: significantly lower

COC(=O)N1CCN(C(=O)CC(=O)NC2CC[C@]3(C)C4CC[C@]5(C)[C@@H]6[C@H](C[C@H]5[C@@H]4CC[C@@H]3C2)O[C@]2(CC[C@H](C)CO2)[C@H]6C)CC1 (stereo partly shown) [Embodiment 28]
blood glucose [9]: certain blood glucose-reducing effects

CCN1CCC(N2CCN(C(=O)CC(=O)NC3CC[C@]4(C)C5CC[C@]6(C)[C@@H]7[C@H](C[C@H]6[C@@H]5CC[C@@H]4C3)O[C@]3(CC[C@H](C)CO3)[C@H]7C)CC2)CC1 (stereo partly shown) [Embodiment 29]
blood glucose [9]: certain blood glucose-reducing effects

C[C@H]1CC[C@@]2(OC1)O[C@H]1C[C@H]3[C@@H]4CC[C@@H]5CC(NC(=O)CC(=O)N6CCC(N7CCN(CC#N)CC7)CC6)CC[C@]5(C)C4CC[C@]3(C)[C@H]1[C@@H]2C (stereo partly shown) [Embodiment 30]
blood glucose [9]: best blood glucose-reducing effect and could reach the level of normal background mice

C[C@H]1CC[C@@]2(OC1)O[C@H]1C[C@H]3[C@@H]4CC[C@@H]5CC(NC(=O)CC(=O)N6CCN(C7CCN(CCF)CC7)CC6)CC[C@]5(C)C4CC[C@]3(C)[C@H]1[C@@H]2C (stereo partly shown) [Embodiment 36]
colon ulcer area [10]: could reduce | colon weight per unit length (colon weight/colon length) [10]: could reduce

C[C@H]1CC[C@@]2(OC1)O[C@H]1C[C@H]3[C@@H]4CC[C@@H]5CC(NC(=O)CC(=O)N6CCN(C(=O)CN(C)C)CC6)CC[C@]5(C)C4CC[C@]3(C)[C@H]1[C@@H]2C (stereo partly shown) [Embodiment 37]
colon ulcer area [10]: could reduce | colon weight per unit length (colon weight/colon length) [10]: could reduce
